Experimental data from US4442031A, “Immunopotentiating peptides” (Hoffmann-La Roche Inc., priority 1983, dated 1984).
Where no end group is shown, it is not given here.

Experiments:
[1] = system: Candida albicans ATCC 10231; assay: Protective activity against Candida albicans infection in 5-FU immunosuppressed mice; type: in vivo; conditions: for Survivors Day 8 / Survivors Day 15: ddY mice; for Survivors at Day 8 after infection: Table 6, i.p., ten times with 5-FU, control 1/7
Description: In a series of examples, the compounds of formula I were tested for protective activity against opportunistic infections in immunosuppressed mice. Female ddY mice (6 weeks old) weighing about 26 g were pretreated daily for ten days with 5-fluorouracil (5-FU) (25 mg/kg/day, i.p.) and with thymosin α1 or with compounds of formula I (i.p.) at varying dosages. The mice were then infected with Candida albicans ATCC 10231 (1×10^5 cells or more) at 24 hour after the last treatment. One control group was administered 5-FU and saline solution and a second control group received neither 5-FU nor compound of formula I prior to infection with Candida albicans. The number of animals surviving eight days after infection with Candida albicans and 15 days after infection with Candida albicans is presented in the table below.
Normal mice (female ddY mice, 6 weeks old) were highly tolerant to infection with Candida albicans ATCC 10231 at relatively low dose (1-2×10^5 cells, iv.). However, when pretreated daily for ten times with 5-FU (25 mg/kg/day, ip.), the mice were susceptible to infection as shown in Table 6. […] Compound A was also shown to be active against infection with Pseudomonas aeruginosa 5E81-1 and Listeria monocytogenes EGD in the immunosuppressed mice (see Tables 7 and 8).

[2] = system: delayed-type hypersensitivity (DTH); assay: Restoration of delayed-type hypersensitivity (DTH) decreased by 5-FU in BDF1 mice; type: in vivo; conditions: i.p.; for DTH response %: % of control
Description: A poor prognosis is often observed in cancer patients with impaired immune response. Impaired immune response can be caused by the cancer itself, by chemotherapeutic agents, or by radiotherapy. Thus, therapeutic agents which restore impaired immune response in cancer patients are expected to play an important role in combination therapy. The restoration activity of the compounds of the invention on impaired cell-mediated immunity was determined by measuring the enhancement of delayed-type hypersensitivity (DTH), which was decreased to a great extent in mice treated with 5-fluorouracil (5-FU).
Female BDF1 mice (20-22 g, 11-12 weeks old) received (i.p. or p.o.) the compound to be tested on consecutive days one day before, concurrently with and 1 and 2 days after the 5-FU treatment. For DTH measurement, 10^8 chicken red blood cells (CRBC) were injected i.p. (or s.c. into the left hind footpad) and challenged s.c. into the right hind footpad at 3 and 7 days after the 5-FU treatment, respectively. Restoration activity was calculated by the following formula from the DTH response observed in the control group, 5-FU treated group treatment and the Test group treated both with 5-FU and the compound of the invention. Restoration activity was calculated by the formula: [formula]

[3] = Example 8, 4.0 μg/kg i.p. daily for ten days with 5-FU
[4] = Example 8, 40.0 μg/kg i.p. daily for ten days with 5-FU
[5] = Table 3, first experiment, 5-FU plus 0.05 μg/kg/day
[6] = Table 3, first experiment, 5-FU plus 0.5 μg/kg/day
[7] = Table 3, first experiment, 5-FU plus 5.0 μg/kg/day
[8] = Table 3, second experiment, 5-FU plus 0.5 μg/kg/day
[9] = Table 3, second experiment, 5-FU plus 5.0 μg/kg/day
[10] = Table 3, second experiment, 5-FU plus 50.0 μg/kg/day

KSEVVE [Compound B, L-Lysyl-L-seryl-L-glutamyl-L-valyl-L-valyl-L-glutamic acid]
Survivors Day 8 [1, 3]: 6/7 | Survivors Day 15 [1, 3]: 3/7 | Survivors Day 8 [1, 4]: 3/7 | Survivors Day 15 [1, 4]: 3/7 | Survivors Day 8 ([1]; Example 9, 4.0 μg/kg i.p. daily for ten days with 5-FU): 5/7 | Survivors Day 8 ([1]; Example 9, 40.0 μg/kg i.p. daily for ten days with 5-FU): 5/7 | Survivors at Day 8 after infection ([1]; 4 μg/kg/day): 5/7 | Survivors at Day 8 after infection ([1]; 40 μg/kg/day): 5/7 | DTH response av. ± S.E. (0.1 mm) ([2]; Table 3, first experiment (control 8.5, 5-FU alone 4.8), 5-FU plus 0.05 μg/kg/day): 7.2 ± 0.8 0.1 mm | DTH response av. ± S.E. (0.1 mm) ([2]; Table 3, first experiment (control 8.5, 5-FU alone 4.8), 5-FU plus 0.5 μg/kg/day): 6.5 ± 0.7 0.1 mm | DTH response av. ± S.E. (0.1 mm) ([2]; Table 3, first experiment (control 8.5, 5-FU alone 4.8), 5-FU plus 5.0 μg/kg/day): 8.5 ± 1.0 0.1 mm | Restoration Activity(%) [2, 5]: 65.0% | DTH response % [2, 5]: 84.7% | Restoration Activity(%) [2, 6]: 48.0% | DTH response % [2, 6]: 77.2% | Restoration Activity(%) [2, 7]: 100% | DTH response % [2, 7]: 100% | DTH response av. ± S.E. (0.1 mm) ([2]; Table 3, second experiment (control 15.1, 5-FU alone 8.1), 5-FU plus 0.5 μg/kg/day): 8.5 ± 0.9 0.1 mm | DTH response av. ± S.E. (0.1 mm) ([2]; Table 3, second experiment (control 15.1, 5-FU alone 8.1), 5-FU plus 5.0 μg/kg/day): 8.3 ± 1.8 0.1 mm | DTH response av. ± S.E. (0.1 mm) ([2]; Table 3, second experiment (control 15.1, 5-FU alone 8.1), 5-FU plus 50.0 μg/kg/day): 9.4 ± 0.8 0.1 mm | Restoration Activity(%) [2, 8]: 6.5% | DTH response % [2, 8]: 56.4% | Restoration Activity(%) [2, 9]: 3.1% | DTH response % [2, 9]: 54.8% | Restoration Activity(%) [2, 10]: 18.3% | DTH response % [2, 10]: 61.9% | DTH restoration activity (in words) ([2]; Tables 2 and 3): active
